The record followed here is patent US20110281807A1, “PLANT DISEASE CONTROL AGENT COMPRISING D-TAGATOSE AS ACTIVE INGREDIENT, AND PLANT DISEASE CONTROL METHOD” (NATIONAL UNIVERSITY CORPORATION KAGAWA UNIVERSITY, priority 2008, published 2011).

The subject of test [1] is Pseudoperonospora cubensis. In words: cucumber downy mildew, pot test: curative effect.
Experimental: Test plants (cucumber, variety: Sagami hanpaku) were seeded and grown until the one true leaf stage. And then a sporangium suspension of Pseudoperonospora cubensis containing 1×10^3/ml were sprayed on the back side of the leaves of test plants for inoculation and then the plants were put for 16 hours in an inoculation chamber (20° C. to 23° C.) to promote disease. For a curative test, the inoculated plants as described above were used.
D-Tagatose was diluted to 5%, 1% and 0.5% with distilled water and then 10 ml of the dilution was sprayed on the test plant. Seven days after the spraying of D-tagatose the disease severity of the test plants was observed and the effectiveness of test sample was judged. Tests were carried out using two plants for each test set and the disease severity of the test plants was judged. The control value was calculated from the degree of disease severity as in Example 1.
For test [2], the system named is Pseudoperonospora cubensis. In words: cucumber downy mildew, pot test: preventive effect. As to conditions: for Preventive value (3 DAS): inoculated 3 days after spraying; for Preventive value (5 DAS): inoculated 5 days after spraying.
Experimental: Test plants (cucumber, variety: Sagami hanpaku) were seeded and grown until the one true leaf stage. D-Tagatose was diluted to 5%, 1% and 0.5% with distilled water and then 10 ml of the dilution was sprayed on the test plant. Three or five days after spraying, a sporangium suspension of Pseudoperonospora cubensis containing 1×10^3/ml were inoculated by spraying on test plants and then the plants were put for 16 hours in an incubation chamber (20° C. to 23° C.) to promote disease. Seven days after inoculation the disease severity of the test plants was observed and the effectiveness of test sample was judged. Tests were carried out using two plants for each test set and the disease severity of the test plants was judged in accordance with the following criteria. The preventive value was calculated from the degree of the disease severity.
(§1) 0 (No lesion) 1 (Lesion area was not more than 40%) 2 ((Lesion area was 40%-80%) 3 (Lesion area was not less than 80%)
Preventive value=100{1−(n/N)} N=disease severity of untreated leaf, n=disease severity of the tested leaf
For test [3], the system named is Pseudoperonospora cubensis. As to conditions: alone.
Experimental: Test plants (cucumber, variety: Sagami hanpaku) were seeded and grown until the one true leaf stage. D-tagatose alone was diluted to 5%, 1%, 0.5% and 0.1%, and the combination of D-tagatose and other saccharide were diluted to be 0.5% and 0.5% solution respectively with distilled water, and then 10 ml of the dilution was sprayed on the test plant. Three days after spraying of the solution, a sporangium suspension of Pseudoperonospora cubensis containing 1×10^3/ml were inoculated by spraying on test plants and then put them for 16 hours in an inoculation chamber (20° C. to 23° C.) to promote disease. Seven days after inoculation the disease severity of the test plants was observed and the effectiveness of test sample was judged. Tests were carried out using two plants for each test set and the disease severity of the test plants was judged in accordance with the following criteria. The preventive value was calculated from the degree of disease severity as in example 1.
Synergistic effect was determined by the Colby's equation below.
X is the observed effect, in percentage, of the first active ingredient and, and Y is the observed effect, in percentage, of the second active ingredient. E is the effect, in percentage, of the mixture expected from additive contribution of the individual components.
The test system of test [4] is Pseudoperonospora cubensis. As to conditions: Pseudoperonospora cubensis, in Cucumis sativus, 168 h, read-out: Preventive value.
Experimental: Test plants (cucumber, variety: Sagami hanpaku) were seeded and grown until the one true leaf stage. D-Tagatose was diluted to 5000 ppm and the fungicides were diluted to the concentrations listed in table 14, with distilled water. And then 10 ml of the dilution was sprayed on the test plant. Three days after spraying of the solution, a sporangium suspension of Pseudoperonospora cubensis containing 1×10^3/ml were inoculated by spraying on test plants and then put for 16 hours in an inoculation chamber (20° C. to 23° C.) to promote disease. Seven days after inoculation the disease severity of the test plants was observed and the effectiveness of the test sample was judged. Tests were carried out using two plants for each test set and the disease severity of the test plants was judged in accordance with the following criteria. The preventive value was calculated from the degree of disease severity.
as §1
Preventive value=100{1−(n/N)} N=disease severity of untreated leaf, n=disease severity of the test leaf Synergistic effect was determined by Colby's equation.
Test [5] concerns Plasmopara viticola. As to conditions: Plasmopara viticola, 168 h, read-out: Preventive value.
Experimental: Test plants (variety: Neo Muscat) were seeded and grown until three leaves. D-Tagatose was diluted to 5000 ppm and the fungicides were diluted to the concentrations listed in table 16, with distilled water, and 10 ml of the dilution was sprayed on the plants. Three days after the spraying of the dilution, the plants were infected by spraying a sporangium suspension of Plasmopara viticola containing 1×10^3/ml and then put for 16 hours in an inoculation chamber (20° C. to 23° C.) to promote disease. The disease severity of the test plants was observed 7 days after inoculation, and the effectiveness of test sample was judged.
Test [6] concerns Erysiphe graminis f.sp. hordei. Conditions: Blumeria graminis, in Hordeum vulgare, 168 h, read-out: Preventive value.
Experimental: Test plants (barley, variety: Akashinriki) were seeded and grown until the one leaf stage. D-tagatose and fungicide were diluted to 5000 ppm and the concentrations listed in table 21, respectively, with distilled water and 10 ml of the dilution was sprayed thoroughly on the plants. Three days after spraying, a condia suspension of Erysiphe graminis f.sp. hordei was inoculated by spraying on test plants. 7 days after inoculation the disease severity of the test plants was observed and the effectiveness of test sample was judged.
The subject of test [7] is Pseudoperonospora cubensis. As to conditions: Pseudoperonospora cubensis, in Cucumis sativus, 168 h, read-out: Preventive value. This is another data set of the same source.
Experimental: Test plants (cucumber, variety: Sagami hanpaku) were seeded and grown until the one true leaf stage. And then, a sporangium suspension of Pseudoperonospora cubensis containing 1×10^3/ml were spraying for inoculation on the back side of the leaves of test plants and then put for 16 hours in an inoculation chamber (20° C. to 23° C.) to promote disease. For a curative test, the inoculated plants as described above were used.
D-Tagatose was diluted to 5000 ppm and the fungicides were diluted to the concentrations listed in table 15, with distilled water, and 10 ml of the dilution was sprayed. Seven days after inoculation the disease severity of the test plants was observed and the effectiveness of test sample was judged.
Test [8] concerns Pythium aphanidermatum. As to conditions: 300 ppm, 10 ml soil drench; from germination rate after 2 weeks.
Experimental: Five seeds of test plants (cucumber, variety: Sagami hanpaku) were sowed in a pot (5×5 cm), which contains infested soil with Pythium aphanidermatum (mycelium 100 g/1 L soil) and the seeds were covered with the soil. […] After 2 weeks, the disease severity of the test plants was observed and the effectiveness of test sample was judged. Tests were carried out in triplicate using 5 plants for each test set and the preventive value was calculated from the germination rate.
The subject of test [9] is Peronospora parasitica. In words: cabbage downy mildew, pot test: preventive effect. Conditions: 600 ppm spray; inoculated 3 days after spraying.
Experimental: Test plants (cabbage, variety: Shikidori) were seeded and grown until 4 leaves stage. […] Three days after spraying, a suspension containing condia of cucumber downy mildew (Peronospora parasitica) was inoculated by spraying on test plants. Seven days after inoculation the disease severity of the test plants was observed and the effectiveness of test sample was judged. Tests were carried out using two plants for each test set and the disease severity of test plants was judged in accordance with the following criteria. The preventive value was calculated from the degree of disease severity as in Example 1.
For test [10], the system named is Botrytis cinerea. Conditions: Botrytis cinerea, in Solanum lycopersicum, 168 h, read-out: Preventive value.
Experimental: Test plants (tomato, variety: Ogata-fukujyu) were seeded and grown until the three leaf stage. D-Tagatose and fungicide were diluted to 10000 ppm and the concentrations liste in table 23, respectively, with distilled water and 10 ml of the dilution was sprayed on the plants. Three days after spraying the solution, condia suspension of Botrytis cinerea were inoculated by spraying on test plants and then put for 16 hours in an inoculation chamber (20° C. to 23° C.) to promote disease. Seven days after inoculation, the disease severity of the test plants was observed and the effectiveness of test sample was judged.
The test system of test [11] is Phytophthora infestans. The format is in vivo. Conditions: 300 ppm spray; inoculated 3 days after spraying.
The test system of test [12] is Phytophthora infestans. In words: whole plant or invertebrate. It counts as in vivo. As to conditions: Phytophthora infestans, in Solanum lycopersicum, 168 h, read-out: Preventive value.
For test [13], the system named is Pseudoperonospora cubensis. As to conditions: 300 ppm, 5 ml soil drench; inoculated 5 days after drenching.
Experimental: Test plants (cucumber, variety: Sagami hanpaku) were seeded and grown until the one true leaf stage. D-Tagatose was diluted to 5% and 1% with distilled water and then 5 ml of the dilution was drenched into the soil of the pot. Five days after drenching, a sporangium suspension of Pseudoperonospora cubensis containing 1×10^3/ml were noculated by spraying on the test plants and then put them for 16 hours in an inoculation chamber (20° C. to 23° C.) to promote disease. Seven days after inoculation the disease severity of the test plants was observed and the effectiveness of test sample was judged. Tests were carried out using two plants for each test set and the disease severity of the test plants was judged. The preventive value was calculated from the degree of disease severity as in Example 1.
Test [14] concerns Pythium aphanidermatum. In words: cucumber damping-off, pot test: soil drench of D-tagatose combined with fungicides. Conditions: Pythium aphanidermatum, in Cucumis sativus, soil, 336 h, read-out: Preventive value.
Experimental: Five seeds of test plants (cucumber, variety: Sagami hanpaku) were sowed in a pot (5×5 cm), which contains infested soil with Pythium aphanidermatum (mycelium 100 g/1 L soil) and was covered with soil. D-Tagatose was diluted to 5000 ppm and the fungicides were diluted to the concentrations listed in table 18, with distilled water. The pot was drenched with 10 ml of the dilution. After 2 weeks, the disease severity of the test plants was observed and the effectiveness of test sample was judged. Tests were carried out in triplicate using 5 plants for each test set and the preventive value was calculated from the germination rate.
Test [15] relates to Sphaerotheca fuliginea. Conditions: Podosphaera fuliginea, in Cucumis sativus, 168 h, read-out: Preventive value.
Experimental: Test plants (cucumber, variety: Sagami hanpaku) were seeded and grown until the one true leaf stage. D-Tagatose and fungicide were diluted to 5000 ppm and the concentrations listed in table 20, respectively, with distilled water and 10 ml of the dilution was sprayed thoroughly on the plants. Three days after spraying, a condia suspension containing of Sphaerotheca fuliginea were inoculated by spraying on test plants.
Seven days after inoculation the disease severity of the test plants was observed and the effectiveness of test sample was judged.
For test [16], the system named is Puccinia recondita. Conditions: Puccinia recondita, in Triticum aestivum, 168 h, read-out: Preventive value.
Experimental: Test plants (variety: Nourin 61 gou) were sowed and grown until two leaves stage.
D-Tagatose and fungicide were diluted to 10000 ppm and the concentration listed in table 19, respectively, with distilled water, and 10 ml of the dilution was sprayed thoroughly on the plants. Three days after the spraying of the dilution, the plants were inoculated with Puccinia recondita containing 1×10^3/ml and then put for 16 hours in an inoculation chamber (20° C. to 23° C.) to promote disease. Seven days after inoculation the disease severity of the test plants was observed and the effectiveness of test sample was judged.
The subject of test [17] is Puccinia recondita. In words: wheat brown rust, field trial. As to conditions: 200 ppm.
Experimental: Test plants (variety: Nourin 61 gou) were sowed and grown until heading stage. D-Tagatose was diluted to 5% with distilled water and sprayed thoroughly on the plants two times every 8 days. Three days after the first spraying of the dilution, wheat leaves inoculated with wheat fusarium blight (Puccinia recondita) were kept in the test plants. The disease severity of the test plants was observed 21 days after last spraying and the effectiveness of test sample was judged. Tests were carried out in duplicate. One plot of each test was 5 m^2. The disease severity of the test plants was judged in accordance with the following criteria. The preventive value was calculated from the degree of disease severity.
In test [18] the test system is Pyricularia oryze. In words: whole plant or invertebrate. The format is in vivo. As to conditions: Pyricularia, in Oryza sativa, 168 h, read-out: Preventive value.

“And” between values parts separate entries of the source, which are not always exact repeats. Equal values may be shown once. Read-outs that look alike come from different tables or passages of the source.

`CSC(=O)c1cccc2nnsc12` [Acibenzolar-S-Methyl, acibenzolar-S-methyl]: the “Preventive value (control value)” value in test [1] (50 ppm sprayed after inoculation (curative)) was found to be 25.0. In addition, in [2] (50 ppm spray), the “Preventive value (3 DAS)” value amounted to 91.7 and the “Preventive value (5 DAS)” value is given as 99.2. The compound also yielded a Preventive value in [3] (50 ppm) of 95.0.

`O=C(CO)[C@@H](O)[C@H](O)[C@H](O)CO` [D-Fuctose, D-fructose] yielded a Preventive value in [3] (5000 ppm) of 0.0.

On to `O=C[C@@H](O)[C@@H](O)[C@H](O)[C@H](O)CO` [D-Mannose, D-mannose], for which the Preventive value in test [3] (5000 ppm) came out at 0.0.

The compound `O=C(CO)[C@H](O)[C@H](O)[C@H](O)CO` [D-Psicose, D-psicose] showed a Preventive value in test [3] (5000 ppm) of 0.0.

For the compound `O=C(CO)[C@H](O)[C@@H](O)[C@H](O)CO` [D-Sorbose, D-sorbose], the Preventive value in test [3] (5000 ppm) is 0.0.

With `COCC(=O)N(c1c(C)cccc1C)C(C)C(=O)OC` (stereo not drawn) [Metalaxyl, metalaxyl], the pest or weed control at 2 ppm in [4] was 67%; in test [5], 50%; in test [7], 33%; in [12], 67%. In [1] (300 ppm sprayed after inoculation (curative)), the “Preventive value (control value)” value worked out at 100.0. The pest or weed control at 250 ppm in [6], in [10], in [15] and in [16] was 0% in each case. Moreover, the Preventive value is reported as 95.0 in [8]; 98.4 in test [9]; 93.3 in [11]; 100.0 in test [13]; 100.0 in [3] (300 ppm). For the same compound, the “Preventive value (3 DAS)” value in [2] (300 ppm spray) was found to be 100.0. In addition, the “Preventive value (5 DAS)” value in [2] (300 ppm spray) amounted to 100.0. The pest or weed control at 5 ppm in test [14] was determined as 83%.

In the case of `C=CCOC1=NS(=O)(=O)c2ccccc21` [Probenazole, probenazole], in test [1] (100 ppm sprayed after inoculation (curative)), the “Preventive value (control value)” value is on record as 18.3. Further, in test [2] (100 ppm spray), the “Preventive value (3 DAS)” value stood at 33.3 and the “Preventive value (5 DAS)” value came to 95.0. The compound further yielded a Preventive value in [3] (100 ppm) of 66.7.

As for `CC(C)(C)C(O)(CCc1ccc(Cl)cc1)Cn1cncn1` (stereo not drawn) [Tebuconazole, tebuconazole], the “D.D.S (Degree of disease severity), Av” value in [17] (average of plots) is 0.2. In test [17] (per plot (1, 2), 100 leaves), the “Leaves number(n) of disease severity 0” value is 98 and 100; the “Leaves number(n) of disease severity 2” value turned out to be 0; the “Leaves number(n) of disease severity 3” value is given as 0; the “Leaves number(n) of disease severity 4” value was 0. In test [17] (per plot (1, 2), 100 leaves), the “Leaves number(n) of disease severity 5” value was 0 and the “Leaves number(n) of disease severity 6” value was 0. Moreover, the “P.V. (Preventive value), Av” value in test [17] (sprayed two times every 8 days, rated 21 days after last spraying) was found to be 99.8. Further, the pest or weed control at 0.4 ppm in test [6] came to 67%. Moreover, the pest or weed control at 10 ppm in test [10] was determined as 33%. The pest or weed control at 0.4 ppm in test [15] came to 73%. Besides, the pest or weed control at 0.4 ppm in [16] stood at 50%.

For the compound `Cc1ccc(-c2c(Cl)nc(C#N)n2S(=O)(=O)N(C)C)cc1` [cyazofamid], the pest or weed control at 250 ppm in test [18], in test [6], in [10], in [15] and in test [16] was 0% throughout. In addition, the pest or weed control at 0.4 ppm is 73% in test [4], 50% in test [5], 0% in test [7] and 17% in test [12]. Also, the pest or weed control at 50 ppm in [14] was found to be 83%.

Regarding `Cc1cc(C2CC2)nc(Nc2ccccc2)n1` [cyprodinil], the pest or weed control at 250 ppm was 73% in test [18]; 0% in [4]; 0% in test [5]; 0% in test [7]; 0% in test [12]; 0% in [14]. The pest or weed control at 250 ppm in [16] amounted to 67%. Also, the pest or weed control at 10 ppm in test [6] was 17%; in test [10], 73%; in test [15] it was 67%.

`N#Cc1c[nH]cc1-c1cccc2c1OC(F)(F)O2` [fludioxonil]: the pest or weed control at 50 ppm in test [18] came to 83%; in test [16], 17%. The pest or weed control at 10 ppm in test [4] came out at 57%; in [5], 33%; in test [7], 0%; in [12], 0%. Besides, the pest or weed control at 250 ppm in test [6] was 73%; in [14], 0%; in test [15] it was 73%. Also, in test [10], the pest or weed control at 2 ppm turned out to be 67%.

Turning to `Cc1cc(O)no1` [hymexazol], the pest or weed control at 250 ppm in [18] is 33%; in test [4], 0%; in test [5] it was 0%; in test [6], 0%; in [7] it was 0%; in [10] it was 0%. Moreover, the pest or weed control at 250 ppm in test [12], in test [15] and in test [16] was 0% in each case. Further, in test [14], the pest or weed control at 50 ppm was 67%.

For the compound `CC(C)CC(C)c1sccc1NC(=O)c1cn(C)nc1C(F)(F)F` (stereo not drawn) [penthiopyrad], the pest or weed control at 50 ppm in [18] was determined as 40%; in test [4] it was 0%; in test [5], 0%; in test [7] it was 0%; in test [12], 0%. Besides, the results for the pest or weed control at 0.4 ppm in [6], in [15] and in test [16] were 67%, 50% and 67%, respectively. In [10], the pest or weed control at 10 ppm was determined as 67%. In addition, the pest or weed control at 250 ppm in test [14] was 0%.

Take `C[Si](C)(C)CC(O)(Cn1cncn1)c1ccc(F)cc1` (stereo not drawn) [simeconazole]: the pest or weed control at 250 ppm came out at 73% in [18]; 0% in test [4]; 0% in [5]; 0% in [7]; 0% in test [12]; 0% in [14]. Also, the pest or weed control at 0.4 ppm in test [6] was 50%; in [15], 83%. For the same compound, the pest or weed control at 50 ppm in [10] was 33%. Moreover, the pest or weed control at 10 ppm in [16] amounted to 67%.

As to `COC(=O)NC(=S)Nc1ccccc1NC(=S)NC(=O)OC` [thiophanate-methyl], the pest or weed control at 250 ppm in test [18] was 83%; in test [4] it was 0%; in test [5], 0%; in [7], 0%; in test [12], 0%; in test [14], 0%. Besides, the values for the pest or weed control at 10 ppm in test [6], in [15] and in test [16] were 83%, 83% and 40%, respectively. Further, the pest or weed control at 50 ppm in test [10] is 83%.
